Source: ChEMBL document CHEMBL1137927, “Initial structure-activity relationships of lysophosphatidic acid receptor antagonists: discovery of a high-affinity LPA1/LPA3 receptor antagonist” (Bioorg Med Chem Lett, 2004)

Experiments:
[1] = target: Lysophosphatidic acid receptor 1 (Homo sapiens, UniProt Q92633); assay: In vitro ability to antagonize LPA-evoked [35S]GTP-gamma-S binding to lysophosphatidic acid receptor 1 in HEK293T cell lines; format: functional, cell-based, HEK-293T
[2] = target: T1, Lysophosphatidic acid receptor 3 (Homo sapiens, UniProt Q9UBY5); assay: In vitro antagonism of LPA-evoked [35S]GTP-gamma-S binding to lysophosphatidic acid receptor 3 in HEK293T cell lines; format: functional, cell-based, HEK-293T
T1 sequence (Q9UBY5 whole entry): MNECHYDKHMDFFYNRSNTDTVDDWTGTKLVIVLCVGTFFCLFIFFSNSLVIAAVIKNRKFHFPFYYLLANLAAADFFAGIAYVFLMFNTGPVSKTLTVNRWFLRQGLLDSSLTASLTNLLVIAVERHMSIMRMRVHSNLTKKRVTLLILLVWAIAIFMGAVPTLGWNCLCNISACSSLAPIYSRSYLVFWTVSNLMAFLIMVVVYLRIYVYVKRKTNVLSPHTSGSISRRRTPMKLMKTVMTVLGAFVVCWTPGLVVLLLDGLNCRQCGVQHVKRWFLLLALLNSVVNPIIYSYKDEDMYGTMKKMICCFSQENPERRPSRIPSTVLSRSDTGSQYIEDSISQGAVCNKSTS

Chain of Lysophosphatidic acid receptor 1 (Q92633 whole entry): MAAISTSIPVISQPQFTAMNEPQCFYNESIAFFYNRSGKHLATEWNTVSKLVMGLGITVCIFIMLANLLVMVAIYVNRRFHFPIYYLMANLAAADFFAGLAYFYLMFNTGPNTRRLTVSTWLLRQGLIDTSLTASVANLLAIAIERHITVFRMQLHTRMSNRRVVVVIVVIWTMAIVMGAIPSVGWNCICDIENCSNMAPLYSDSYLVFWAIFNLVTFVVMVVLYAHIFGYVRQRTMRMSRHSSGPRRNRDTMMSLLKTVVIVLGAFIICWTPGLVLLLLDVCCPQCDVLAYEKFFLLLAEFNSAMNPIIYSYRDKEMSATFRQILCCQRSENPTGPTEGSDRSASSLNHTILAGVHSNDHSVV

| IC50 [1] | Ki [1] | IC50 [2] | SMILES |
| --- | --- | --- | --- |
| 5.21 µM | 137 nM | 6.45 µM | CCCCCCCC/C=C\CCCCCCCC(=O)NC(COP(=O)(O)O)Cc1ccc(OCc2ccccc2)cc1 (stereo not drawn) |
| 0.604 µM | 156 nM | 0.94 µM | CCCCCCCC/C=C\CCCCCCCC(=O)N[C@H](COP(=O)(O)O)Cc1ccc(OCc2ccccn2)cc1 |
| 2.49 µM | – | > 10 µM | CCCCCCCC/C=C\CCCCCCCC(=O)N[C@@H](COP(=O)(O)O)Cc1ccc(OCc2ccccc2)cc1 |
| > 10 µM | – | > 10 µM | CCCCCCCC/C=C\CCCCCCCC(=O)N[C@H](COP(=O)(O)O)Cc1ccc(OCc2ccccc2)cc1 |
| > 10 µM | – | > 10 µM | C#CCOc1ccc(C[C@@H](COP(=O)(O)O)NC(=O)CCCCCCC/C=C\CCCCCCCC)cc1 |
| > 10 µM | – | 4.03 µM | CCCCCCCC/C=C\CCCCCCCC(=O)N[C@@H](COP(=O)(O)O)Cc1ccc(OCC2CCCCC2)cc1 |
| > 10 µM | – | 0.351 µM | CCCCCCCC/C=C\CCCCCCCC(=O)N[C@@H](COP(=O)(O)O)Cc1ccc(OCCC(C)C)cc1 |
| > 10 µM | – | 6.93 µM | CCCCCCCC/C=C\CCCCCCCC(=O)N[C@H](COP(=O)(O)O)Cc1ccc(OCC)cc1 |
| > 10 µM | – | > 10 µM | C=CCOc1ccc(C[C@@H](COP(=O)(O)O)NC(=O)CCCCCCC/C=C\CCCCCCCC)cc1 |
| 0.109 µM | 18 nM | 0.175 µM | CCCCCCCC/C=C\CCCCCCCC(=O)N[C@@H](COP(=O)(O)O)Cc1ccc(OCc2ccccn2)cc1 |
| 1.07 µM | 34 nM | 0.0356 µM | CCCCCCCC/C=C\CCCCCCCC(=O)N[C@@H](COP(=O)(O)O)Cc1ccc(OCc2cccc(OC)c2)cc1 |
| > 10 µM | – | 5.92 µM | CCCCCCCC/C=C\CCCCCCCC(=O)N[C@H](COP(=O)(O)O)Cc1ccc(OCCC(C)C)cc1 |
| > 10 µM | – | > 10 µM | CCCCCCCC/C=C\CCCCCCCC(=O)N[C@@H](COP(=O)(O)O)Cc1ccc(OC)cc1 |
| > 10 µM | – | 3.28 µM | C#CCCCCOc1ccc(C[C@H](COP(=O)(O)O)NC(=O)CCCCCCC/C=C\CCCCCCCC)cc1 |
| > 10 µM | – | 6.41 µM | CCCCCCCC/C=C\CCCCCCCC(=O)N[C@@H](COP(=O)(O)O)Cc1ccc(OCC)cc1 |

Further lines, the molecule ahead of its results:

| SMILES | IC50 [1] | Ki [1] | IC50 [2] |
| --- | --- | --- | --- |
| CCCCCCCC/C=C\CCCCCCCC(=O)N[C@@H](COP(=O)(O)O)Cc1ccc(OC(=O)c2cc(OC)c(OC)c(OC)c2)cc1 | > 10 µM | – | 0.427 µM |
| CCCCCCCC/C=C\CCCCCCCC(=O)N[C@@H](COP(=O)(O)O)Cc1ccc(OC2Cc3ccccc3C2)cc1 | 2.93 µM | 134 nM | 2.31 µM |
| CCCCCCCC/C=C\CCCCCCCC(=O)N[C@H](COP(=O)(O)O)Cc1ccc(OC(=O)c2ccc(CCCCC)cc2)cc1 | > 10 µM | – | > 10 µM |
| CCCCCCCC/C=C\CCCCCCCC(=O)N[C@@H](COP(=O)(O)O)Cc1ccc(Oc2cc3ccccc3[nH]2)cc1 | 7 µM | 73 nM | 2.63 µM |
| CCCCCCCCCCCCCCCC(=O)NC(COP(=O)(O)O)Cc1ccc(OCc2cccc(OC)c2)cc1 (stereo not drawn) | > 10 µM | – | 7.22 µM |
| CCCCCCCCCCCCCC(=O)NC(COP(=O)(O)O)Cc1ccc(OCc2ccccc2)cc1 (stereo not drawn) | 9.03 µM | – | > 10 µM |
| CCCCCCCCCCCCCCCC(=O)NC(COP(=O)(O)O)Cc1ccc(OCc2ccccc2)cc1 (stereo not drawn) | > 10 µM | – | 6.84 µM |
| CCCCCCCC/C=C\CCCCCCCC(=O)N[C@H](COP(=O)(O)O)Cc1ccc(OCc2cccc(OC)c2)cc1 | 5.66 µM | 642 nM | 0.642 µM |
| CCCCC/C=C\C/C=C\CCCCCCCC(=O)NC(COP(=O)(O)O)Cc1ccc(OCc2ccccc2)cc1 (stereo not drawn) | 4.25 µM | – | > 10 µM |
| CCCCCCCC(=O)NC(COP(=O)(O)O)Cc1ccc(OCc2ccccc2)cc1 (stereo not drawn) | 7.97 µM | – | > 10 µM |
| CCCCCCCC/C=C\CCCCCCCC(=O)N[C@H](COP(=O)(O)O)Cc1ccc(Oc2cc3ccccc3[nH]2)cc1 | > 10 µM | – | 9.26 µM |
| CCCCCCCCCCCCCCCCCC(=O)N[C@@H](COP(=O)(O)O)Cc1ccc(OC2O[C@H](CO)[C@@H](O)[C@H](O)[C@H]2O)cc1 (stereo partly drawn) | > 10 µM | – | > 10 µM |
| CCCCCCCC/C=C\CCCCCCCC(=O)N[C@H](COP(=O)(O)O)Cc1ccc(OC(=O)c2ccc(N)cc2)cc1 | > 10 µM | – | > 10 µM |
